Values quoted from earlier work, collected in patent US20060159622A1, “Pharmacodynamic assay for inhibitors of 11-beta-hydroxysteroid dehydrogenase activity in animal tissues” (priority 2003, published 2006).

System: HSD
Details: normal human volunteers

## CC1(C)[C@@H](OC(=O)CCC(=O)O)CC[C@]2(C)[C@H]3C(=O)C=C4[C@@H]5C[C@@](C)(C(=O)O)CC[C@]5(C)CC[C@@]4(C)[C@]3(C)CC[C@@H]12 [carbenoxolone]
  insulin sensitivity: increased insulin sensitivity
